The values that follow come from patent publication US20050137233A1, “Prodrugs of 1-methyl-2-(4-amidinophenylaminomethyl)-benzimidazol-5-yl-carboxylic acid-(N-2-pyridyl-N-2-hydroxycarbonylethyl)-amide” (Boehringer Ingelheim Pharma GmbH & Co. KG, priority 2002, published 2005).

The nature of series [1]: conversion of the prodrugs into active substance II, plasma concentration by HPLC-MS/MS after subcutaneous administration. The class given is in vivo. The settings on record: rabbits, after subcutaneous injection, active substance II measured in plasma, detection limit 4 ng/ml. Here is the method:
In order to investigate the conversion of the prodrugs A and B into the active substance II, 1.0 ml of blood were taken from the central auricular artery of each of the test animals with K-EDTA syringes at various times after subcutaneous administration. The blood was centrifuged and the plasma was acidified with the same volume of 0.2 M hydrochloric acid. These solutions were stored at −20° C. The concentrations of the active substance II were measured using an HPLC-MS/MS apparatus (Perkin Elmer Sciex API 300 LC-MS/MS system). The detection limit was 4 ng/ml.

The test system of another series is female rabbits. The series can be described thus: local tolerance after subcutaneous administration, histological comparison of injection sites with placebo sites. The format is in vivo. The text has this:
For example the compounds • A=1-methyl-2-[4-(N-hydroxyamidino)-phenylaminomethyl]-benzimidazol-5-yl-carboxylic acid-(N-2-pyridyl-N-2-ethoxycarbonylethyl)-amide and • B=1-methyl-2-[4-(N-methoxycarbonylamidino)-phenylaminomethyl]-benzimidazol-5-yl-carboxylic acid-(N-2-pyridyl-N-2-hydroxycarbonylethyl)-amide were investigated for their degree of tolerance when administered by subcutaneous route by comparison with active substance II:
Solutions of the test substances were each administered by subcutaneous route once a day on three successive days to two female rabbits (age: 11 to 14 weeks, weight: 2.0 to 3.5 kg). At the same time as the substances were administered a placebo solution was injected contralaterally into the same animal. The animals were killed 48 hours after the last administration and dissected. The injection sites for administering the test substances were compared histologically with the sites of the placebo injections.

Turning to `COC(=O)/N=C(/N)c1ccc(NCc2nc3cc(C(=O)N(CCC(=O)O)c4ccccn4)ccc3n2C)cc1` [B, 1-methyl-2-[4-(N-methoxycarbonylamidino)-phenylaminomethyl]-benzimidazol-5-yl-carboxylic acid-(N-2-pyridyl-N-2-hydroxycarbonylethyl)-amide], the “conversion of the prodrug into the active substance II” value in series [1] is “converted into the active substance II”. The “degree of tolerance at the injection sites when administered by subcutaneous route” value (“degree of tolerance” below) with female rabbits (female rabbits, subcutaneous once a day on three successive days, histology 48 hours after the last administration, versus contralateral placebo injection) is reported as “very well tolerated locally”. As to `Cn1c(CNc2ccc(C(=N)N)cc2)nc2cc(C(=O)N(CCC(=O)O)c3ccccn3)ccc21` [II, 1-methyl-2-(4-amidinophenylaminomethyl)-benzimidazol-5-yl-carboxylic acid-(N-2-pyridyl-N-2-hydroxycarbonylethyl)-amide], in the series with female rabbits (rabbit, in vivo, sc), the “degree of tolerance” value was “clear signs of inflammation at the injection sites”. As for `CCOC(=O)CCN(C(=O)c1ccc2c(c1)nc(CNc1ccc(/C(N)=N\O)cc1)n2C)c1ccccn1` [A, 1-methyl-2-[4-(N-hydroxyamidino)-phenylaminomethyl]-benzimidazol-5-yl-carboxylic acid-(N-2-pyridyl-N-2-ethoxycarbonylethyl)-amide], the “conversion of the prodrug into the active substance II” value in series [1] is “converted into the active substance II”. The “degree of tolerance” value with female rabbits (rabbit, in vivo, sc) is “very well tolerated locally”.
